The record followed here is patent publication US20130217702A1 (Richter Gedeon Nyrt., priority 2010, published 2013).

SMILES strings stand for the structures. pIC50, pKi: −log10 of the molar value.

In assay [1] the target is T1, recombinant human B1 receptors (Homo sapiens, UniProt P46663).
T1 construct: host or cells: CHO (CHO-B1)
T1 sequence (P46663 1-353): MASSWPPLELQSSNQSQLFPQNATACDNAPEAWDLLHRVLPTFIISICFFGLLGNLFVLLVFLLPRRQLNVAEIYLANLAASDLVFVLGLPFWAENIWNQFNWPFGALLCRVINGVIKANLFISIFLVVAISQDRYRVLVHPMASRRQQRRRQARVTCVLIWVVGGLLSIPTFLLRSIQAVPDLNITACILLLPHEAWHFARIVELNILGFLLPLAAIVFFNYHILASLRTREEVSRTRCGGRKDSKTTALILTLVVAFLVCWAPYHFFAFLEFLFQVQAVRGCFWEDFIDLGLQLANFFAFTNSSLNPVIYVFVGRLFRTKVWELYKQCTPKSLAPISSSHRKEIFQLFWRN
The assay can be described thus: Functional assay: antagonist potency by cytosolic calcium measurement (plate reader fluorimeter) in CHO-B1 cells, agonist LysDABK. It is filed as cell-based. The following applies: CHO-B1 cells, inhibition of LysDABK (EC80)-evoked [Ca2+]i elevation; read-out: B1 func. The method, boiled down:
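IC50 is the concentration giving half-maximal inhibition of the LysDABK (EC80) calcium response, fitted from at least three experiments. CHO cells stably expressing human B1 were dye-loaded, exposed to compound for 20-25 min, then read by fluo-4 fluorescence (ΔF/F) at 37 °C.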

Assay [2] deals with T2, human recombinant bradykinin B1 receptor (Homo sapiens, UniProt P46663).
T2 construct: host or cells: CHO cells, clone hB1-A5
T2 sequence (P46663 1-353): T1 sequence (P46663 1-353)
Put plainly: Human recombinant bradykinin B1 receptor competitive radioligand binding. The following applies: hB1 expressed in CHO cells, [3H]-[Des-Arg10] Kallidin radioligand; read-out: B1 binding. Summed up: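 Competition radioligand binding on CHO-expressed hB1 membranes, using [3,4-prolyl-3,4-^3H(N)]-[Des-Arg^10] Kallidin as tracer, 15 min at 25° C. Excess Lys-des-Arg^9-Bradykinin (10 μM) set nonspecific binding. Sigmoidal fits of at least seven concentrations gave IC50, converted to Ki via Cheng-Prusoff; KD from Scatchard.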

Consider `Cc1nc(-c2c(Cl)c3ccccc3n2-c2ccc(CNC(=O)C3(NC(=O)c4ccc(C(F)(F)F)c(F)c4)CC3)cc2)no1` [Example 93, N-(1-{4-[3-Chloro-2-(5-methyl-[1,2,4]oxadiazol-3-yl)-indol-1-yl]-benzylcarbamoyl}-cyclopropyl)-3-fluoro-4-trifluoromethyl-benzamide], for which the pIC50 in assay [1] was 7.00 to 7.70. The pKi in assay [2] was 7.00 to 7.70.
With `Cc1nc(-c2c(Cl)c3ccccc3n2-c2ccc(CNC(=O)C3(NC(=O)c4cc(F)cc(C(F)(F)F)c4)CC3)cc2)no1` [Example 94, N-(1-{4-[3-Chloro-2-(5-methyl-[1,2,4]oxadiazol-3-yl)-indol-1-yl]-benzylcarbamoyl}-cyclopropyl)-3-fluoro-5-trifluoromethyl-benzamide], the pIC50 in assay [1] was over 7.70. In addition, the pKi in assay [2] is over 7.70.
For the molecule `Cc1nc(-c2c(Cl)c3ccccc3n2-c2ccc(CNC(=O)C3(NC(=O)c4cccnc4F)CC3)cc2)no1` [Example 95, N-(1-{4-[3-Chloro-2-(5-methyl-[1,2,4]oxadiazol-3-yl)-indol-1-yl]-benzylcarbamoyl}-cyclopropyl)-2-fluoro-nicotinamide], the pIC50 in assay [1] was over 7.70. Moreover, the pKi in assay [2] was over 7.70.
As for `Cc1nc(-c2c(Cl)c3ccccc3n2-c2ccc(CNC(=O)C3(NC(=O)c4cc(C(F)(F)F)ccc4F)CC3)cc2)no1` [Example 96, N-(1-{4-[3-Chloro-2-(5-methyl-[1,2,4]oxadiazol-3-yl)-indol-1-yl]-benzylcarbamoyl}-cyclopropyl)-2-fluoro-5-trifluoromethyl-benzamide], the pIC50 in assay [1] is over 7.70. The pKi in assay [2] is over 7.70.
With `Cc1nc(-c2c(Cl)c3ccccc3n2-c2ccc(CNC(=O)C3(NC(=O)c4ccncc4F)CC3)cc2)no1` [Example 97, N-(1-{4-[3-Chloro-2-(5-methyl-[1,2,4]oxadiazol-3-yl)-indol-1-yl]-benzylcarbamoyl}-cyclopropyl)-3-fluoro-isonicotinamide], the pIC50 in assay [1] is 7.00 to 7.70. Besides, the pKi in assay [2] was over 7.70.
In the case of `Cc1nc(-c2c(Cl)c3ccccc3n2-c2ccc(CNC(=O)C3(NC(=O)c4ccc(F)c(C(F)(F)F)c4)CC3)cc2)no1` [Example 98, N-(1-{4-[3-Chloro-2-(5-methyl-[1,2,4]oxadiazol-3-yl)-indol-1-yl]-benzylcarbamoyl}-cyclopropyl)-4-fluoro-3-trifluoromethyl-benzamide], the pIC50 in assay [1] is 7.00 to 7.70. Also, the pKi in assay [2] was over 7.70.
`Cc1nc(-c2c(Cl)c3ccccc3n2-c2ccc(CNC(=O)C3(NC(=O)c4ccc(F)nc4)CC3)cc2)no1` [Example 99, N-(1-{4-[3-Chloro-2-(5-methyl-[1,2,4]oxadiazol-3-yl)-indol-1-yl]-benzylcarbamoyl}-cyclopropyl)-6-fluoro-nicotinamide]: the pIC50 in assay [1] was over 7.70. Also, the pKi in assay [2] is over 7.70.
`N#Cc1cc2cc(Cl)ccc2n1-c1ccc(CNC(=O)C2(NC(=O)c3cncc(C(F)(F)F)c3)CC2)cc1` [Example 100, N-{1-[4-(5-Chloro-2-cyano-indol-1-yl)-benzylcarbamoyl]-cyclopropyl}-5-trifluoromethyl-nicotinamide]: the pIC50 in assay [1] was over 7.70. The pKi in assay [2] was over 7.70.
As for `Cc1noc(-c2cc3cc(F)ccc3n2-c2ccc(CNC(=O)C3(NC(=O)CC(F)(F)F)CC3)cc2)n1` [Example 101, 1-(3,3,3-Trifluoro-propionylamino)-cyclopropanecarboxylic acid 4-[5-fluoro-2-(3-methyl-[1,2,4]oxadiazol-5-yl)-indol-1-yl]-benzylamide], the pIC50 in assay [1] was over 7.70. In addition, the pKi in assay [2] is over 7.70.
Consider `Cc1noc(-c2cc3cc(F)ccc3n2-c2ccc(CNC(=O)C3(NC(=O)c4cncc(C(F)(F)F)c4)CC3)cc2)n1` [Example 102, N-(1-{4-[5-Fluoro-2-(3-methyl-[1,2,4]oxadiazol-5-yl)-indol-1-yl]-benzylcarbamoyl}-cyclopropyl)-5-trifluoromethyl-nicotinamide], for which the pIC50 in assay [1] is over 7.70. Moreover, the pKi in assay [2] is over 7.70.
Consider `COc1cc(C(=O)NC2(C(=O)NCc3ccc(-n4c(-c5nc(C)no5)cc5cc(F)ccc54)cc3)CC2)on1` [Example 103, 3-Methoxy-isoxazole-5-carboxylic acid (1-{4-[5-fluoro-2-(3-methyl-[1,2,4]oxadiazol-5-yl)-indol-1-yl]-benzylcarbamoyl}-cyclopropyl)-amide], for which the pIC50 in assay [1] was over 7.70. For the same molecule, the pKi in assay [2] was over 7.70.
In the case of `Cc1nc(-c2c(Cl)c3ccccc3n2-c2ccc(CNC(=O)C3(NC(=O)c4cccnc4Cl)CC3)c(F)c2)no1` [Example 104, 2-Chloro-N-(1-{4-[3-chloro-2-(5-methyl-[1,2,4]oxadiazol-3-yl)-indol-1-yl]-2-fluoro-benzylcarbamoyl}-cyclopropyl)-nicotinamide], the pIC50 in assay [1] was over 7.70. Further, in assay [2], the pKi is over 7.70.
With `Cc1nc(-c2c(Cl)c3ccccc3n2-c2ccc(CNC(=O)C3(NC(=O)c4cccc(F)c4)CC3)c(F)c2)no1` [Example 105, N-(1-{4-[3-Chloro-2-(5-methyl-[1,2,4]oxadiazol-3-yl)-indol-1-yl]-2-fluoro-benzylcarbamoyl}-cyclopropyl)-3-fluoro-benzamide], the pIC50 in assay [1] was over 7.70. In addition, the pKi in assay [2] is over 7.70.
As to `Cc1cnc(C(=O)NC2(C(=O)NCc3ccc(-n4c(-c5noc(C)n5)c(Cl)c5ccccc54)cc3F)CC2)cn1` [Example 106, 5-Methyl-pyrazine-2-carboxylic acid (1-{4-[3-chloro-2-(5-methyl-[1,2,4]oxadiazol-3-yl)-indol-1-yl]-2-fluoro-benzylcarbamoyl}-cyclopropyl)-amide], in assay [1], the pIC50 was over 7.70. For the same molecule, the pKi in assay [2] is over 7.70.
For `Cc1cc(C(=O)NC2(C(=O)NCc3ccc(-n4c(-c5noc(C)n5)c(Cl)c5ccccc54)cc3F)CC2)no1` [Example 107, 5-Methyl-isoxazole-3-carboxylic acid (1-{4-[3-chloro-2-(5-methyl-[1,2,4]oxadiazol-3-yl)-indol-1-yl]-2-fluoro-benzylcarbamoyl}-cyclopropyl)-amide], the pIC50 in assay [1] was over 7.70. In addition, the pKi in assay [2] was over 7.70.
`Cc1nc(-c2c(Cl)c3ccccc3n2-c2ccc(CNC(=O)C3(NC(=O)CC(F)(F)F)CC3)c(F)c2)no1` [Example 108, 1-(3,3,3-Trifluoro-propionylamino)-cyclopropanecarboxylic acid 4-[3-chloro-2-(5-methyl-[1,2,4]oxadiazol-3-yl)-indol-1-yl]-2-fluoro-benzylamide]: the pIC50 in assay [1] is over 7.70. In addition, the pKi in assay [2] was over 7.70.
On to `Cc1nc(-c2c(Cl)c3ccccc3n2-c2ccc(CNC(=O)C3(NC(=O)c4ccnc(F)c4)CC3)c(F)c2)no1` [Example 109, N-(1-{4-[3-Chloro-2-(5-methyl-[1,2,4]oxadiazol-3-yl)-indol-1-yl]-2-fluoro-benzylcarbamoyl}-cyclopropyl)-2-fluoro-isonicotinamide], for which, in assay [1], the pIC50 is over 7.70. Besides, in assay [2], the pKi was over 7.70.
Consider `Cc1nc(-c2c(Cl)c3ccccc3n2-c2ccc(CNC(=O)C3(NC(=O)c4cc(C5CC5)on4)CC3)c(F)c2)no1` [Example 110, 5-Cyclopropyl-isoxazole-3-carboxylic acid (1-{4-[3-chloro-2-(5-methyl-[1,2,4]oxadiazol-3-yl)-indol-1-yl]-2-fluoro-benzylcarbamoyl}-cyclopropyl)-amide], for which the pIC50 in assay [1] is over 7.70. Besides, in assay [2], the pKi was over 7.70.
Regarding `Cc1nc(-c2c(Cl)c3ccccc3n2-c2ccc(CNC(=O)C3(NC(=O)c4cncc(C(F)(F)F)c4)CC3)c(F)c2)no1` [Example 111, N-(1-{4-[3-Chloro-2-(5-methyl-[1,2,4]oxadiazol-3-yl)-indol-1-yl]-2-fluoro-benzylcarbamoyl}-cyclopropyl)-5-trifluoromethyl-nicotinamide], in assay [1], the pIC50 is over 7.70. In addition, in assay [2], the pKi was over 7.70.
As to `Cc1noc(-c2c(Cl)c3ccccc3n2-c2ccc(CNC(=O)C3(NC(=O)CC(F)(F)F)CC3)cc2)n1` [Example 112, 1-(3,3,3-Trifluoro-propionylamino)-cyclopropanecarboxylic acid 4-[3-chloro-2-(3-methyl-[1,2,4]oxadiazol-5-yl)-indol-1-yl]-benzylamide], the pIC50 in assay [1] was over 7.70. Further, the pKi in assay [2] was over 7.70.
`Cc1noc(-c2c(Cl)c3ccccc3n2-c2ccc(CNC(=O)C3(NC(=O)c4ccnc(F)c4)CC3)cc2)n1` [Example 113, N-(1-{4-[3-Chloro-2-(3-methyl-[1,2,4]oxadiazol-5-yl)-indol-1-yl]-benzylcarbamoyl}-cyclopropyl)-2-fluoro-isonicotinamide]: the pIC50 in assay [1] was over 7.70. Also, in assay [2], the pKi was over 7.70.
For the molecule `Cc1noc(-c2c(Cl)c3ccccc3n2-c2ccc(CNC(=O)C3(NC(=O)c4cc(C5CC5)on4)CC3)cc2)n1` [Example 114, 5-Cyclopropyl-isoxazole-3-carboxylic acid (1-{4-[3-chloro-2-(3-methyl-[1,2,4]oxadiazol-5-yl)-indol-1-yl]-benzylcarbamoyl}-cyclopropyl)-amide], the pIC50 in assay [1] was over 7.70. For the same molecule, the pKi in assay [2] was over 7.70.
